Assay results taken from patent US9993494B2, “Compositions and methods for treating fibrotic disease” (eFFECTOR Therapeutics, Inc., priority 2014, dated 2018).

System: normal human lung fibroblasts
Test: Ribosomal profiling: translational efficiency in TGFβ-treated fibroblasts
Assay type: cell-based
Conditions: TGFβ-treated fibroblasts
Description: Ribosomal profiling allows for measurement of changes in transcription and translation on a genome-wide basis accompanying TGFβ-dependent transformation of fibroblasts to myofibroblasts. Ribosomal profiles of the TGFβ-treated fibroblasts from Example 1 (about 6×10^6 cells/10 cm plate) were prepared and analyzed for changes in translational efficiencies with respect to potential disease-associated cellular changes accompanying this TGFβ-induced transformation.
Briefly, cells were washed with cold PBS supplemented with cycloheximide and lysed with 1× mammalian cell lysis buffer for 10 minutes on ice. Lysates were clarified by centrifugation for 10 minutes at 14,000 rpm and supernatants were collected. Cell lysates were processed to generate ribosomal protected fragments and total mRNA according to the instructions included with the ARTseq Ribosome Profiling Kit (Illumina, San Diego, Calif.). Sequencing of total RNA (RNA) and of ribosome-protected fragments of RNA (RPF) was carried out using RNA-Seq methodology according to the manufacturer's instructions (Illumina). To analyze the ribosomal profiles, RNA-Seq reads were processed with tools from the FASTX-Toolkit (fastq_quality_trimmer, fastx_clipper and fastx_trimmer). Unprocessed and processed reads were evaluated for a variety of quality measures using FastQC, and processed reads were mapped to the human genome using TopHat (see, e.g., Trapnell et al., Bioinformatics 25:1105, 2009). Gene-by-gene assessment of the number of fragments strictly and uniquely mapping to the coding region of each gene was conducted using HTSeq-count, a component of the HTSeq package. […] Genes with low counts in either RPF or RNA were excluded from differential analyses. Pathway and network analyses of differential data were conducted using Ingenuity Pathway Analysis (IPA).

Compound: Cc1ccc(=O)n(-c2ccccc2)c1 [pirfenidone, 5-methyl-1-phenylpyridin-2-one]
- renormalizing the translational profile of RPL9 (ENSG00000163682): + (+ = 0.9 to 1.5)
- renormalizing the translational profile of RHOBTB3 (ENSG00000164292): − (− = <0.9)
- renormalizing the translational profile of HCN1 (ENSG00000164588): − (− = <0.9)
- renormalizing the translational profile of RPL27A (ENSG00000166441): + (+ = 0.9 to 1.5)
- renormalizing the translational profile of RP11-382A20.3.1 (ENSG00000166503): − (− = <0.9)
- renormalizing the translational profile of ANKDD1A (ENSG00000166839): + (+ = 0.9 to 1.5)
- renormalizing the translational profile of RPL13 (ENSG00000167526): − (− = <0.9)
- renormalizing the translational profile of EEF2 (ENSG00000167658): + (+ = 0.9 to 1.5)
- renormalizing the translational profile of CA5B (ENSG00000169239): ++ (++ = 1.5 to 2.0)
- renormalizing the translational profile of MURC (ENSG00000170681): − (− = <0.9)
- renormalizing the translational profile of HTRA3 (ENSG00000170801): − (− = <0.9)
- renormalizing the translational profile of PDE7B (ENSG00000171408): − (− = <0.9)
- renormalizing the translational profile of LPAR3 (ENSG00000171517): − (− = <0.9)
- renormalizing the translational profile of CTPS (ENSG00000171793): − (− = <0.9)
- renormalizing the translational profile of QARS (ENSG00000172053): − (− = <0.9)
- renormalizing the translational profile of RPL38 (ENSG00000172809): − (− = <0.9)
- renormalizing the translational profile of MRPL45 (ENSG00000174100): − (− = <0.9)
- renormalizing the translational profile of RPL4 (ENSG00000174444): + (+ = 0.9 to 1.5)
- renormalizing the translational profile of RPL15 (ENSG00000174748): − (− = <0.9)
- renormalizing the translational profile of DES (ENSG00000175084): − (− = <0.9)
- renormalizing the translational profile of EIF3F (ENSG00000175390): − (− = <0.9)
- renormalizing the translational profile of CLCF1 (ENSG00000175505): − (− = <0.9)
- renormalizing the translational profile of AMIGO3 (ENSG00000176020): + (+ = 0.9 to 1.5)
- renormalizing the translational profile of C14orf49 (ENSG00000176438): − (− = <0.9)
- renormalizing the translational profile of RPLP2 (ENSG00000177600): + (+ = 0.9 to 1.5)
- renormalizing the translational profile of IMPDH2 (ENSG00000178035): − (− = <0.9)
- renormalizing the translational profile of DNAJC22 (ENSG00000178401): + (+ = 0.9 to 1.5)
- renormalizing the translational profile of RPL35A (ENSG00000182899): + (+ = 0.9 to 1.5)
- renormalizing the translational profile of LENG9 (ENSG00000182909): − (− = <0.9)
- renormalizing the translational profile of C22orf32 (ENSG00000183172): − (− = <0.9)
- renormalizing the translational profile of NPW (ENSG00000183971): − (− = <0.9)
- renormalizing the translational profile of PDE4B (ENSG00000184588): + (+ = 0.9 to 1.5)
- renormalizing the translational profile of ROBO2 (ENSG00000185008): − (− = <0.9)
- renormalizing the translational profile of PTCH1 (ENSG00000185920): − (− = <0.9)
- renormalizing the translational profile of POLR1D (ENSG00000186184): − (− = <0.9)
- renormalizing the translational profile of DYNC2H1 (ENSG00000187240): − (− = <0.9)
- renormalizing the translational profile of RPL14 (ENSG00000188846): − (− = <0.9)
- renormalizing the translational profile of LRRK2 (ENSG00000188906): − (− = <0.9)
- renormalizing the translational profile of NACA (ENSG00000196531): + (+ = 0.9 to 1.5)
- renormalizing the translational profile of LAMB3 (ENSG00000196878): − (− = <0.9)
- renormalizing the translational profile of PCBP2 (ENSG00000197111): − (− = <0.9)
- renormalizing the translational profile of MAP3K5 (ENSG00000197442): − (− = <0.9)
- renormalizing the translational profile of RPL37A (ENSG00000197756): + (+ = 0.9 to 1.5)
- renormalizing the translational profile of RPL12 (ENSG00000197958): + (+ = 0.9 to 1.5)
- renormalizing the translational profile of LPAR1 (ENSG00000198121): − (− = <0.9)
- renormalizing the translational profile of RPL23A (ENSG00000198242): − (− = <0.9)
- renormalizing the translational profile of PLN (ENSG00000198523): − (− = <0.9)
- renormalizing the translational profile of RPL10A (ENSG00000198755): − (− = <0.9)
- renormalizing the translational profile of CES1 (ENSG00000198848): − (− = <0.9)
- renormalizing the translational profile of RPL39 (ENSG00000198918): − (− = <0.9)
- renormalizing the translational profile of CARD16 (ENSG00000204397): − (− = <0.9)
- renormalizing the translational profile of MICA (ENSG00000204520): − (− = <0.9)
- renormalizing the translational profile of GNB2L1 (ENSG00000204628): + (+ = 0.9 to 1.5)
- renormalizing the translational profile of RPL17 (ENSG00000215472): + (+ = 0.9 to 1.5)
- renormalizing the translational profile of RPL41 (ENSG00000229117): − (− = <0.9)
- renormalizing the translational profile of ARPC1A (ENSG00000241685): − (− = <0.9)
- renormalizing the translational profile of CHCHD10 (ENSG00000250479): +++ (+++ = >2.0)
- renormalizing the translational profile of EEF1G (ENSG00000254772): − (− = <0.9)
- number of genes whose translational efficiency was uniquely modulated by the compound (duplicate ribosomal profiles): 35 genes
- effect in renormalizing the translational profile of the gene (gene RPS2 (ENSG00000140988)): − (− = <0.9)
- effect in renormalizing the translational profile of the gene (gene RPS3 (ENSG00000149273)): − (− = <0.9)
- effect in renormalizing the translational profile of the gene (gene RPS3A (ENSG00000145425)): − (− = <0.9)
- effect in renormalizing the translational profile of the gene (gene RPS4X (ENSG00000198034)): − (− = <0.9)
- effect in renormalizing the translational profile of the gene (gene RPS4Y1 (ENSG00000129824)): − (− = <0.9)
- effect in renormalizing the translational profile of the gene (gene RPS5 (ENSG00000083845)): + (+ = 0.9 to 1.5)
- effect in renormalizing the translational profile of the gene (gene RPS6 (ENSG00000137154)): − (− = <0.9)
